The text below walks through data of US12109184B2, “Personalized methods of treating cancer” (CANCER RESEARCH TECHNOLOGY LIMITED, priority 2020, dated 2024).

In assay [1] the test system is HCT116, SW480, MDA-MB-231, and MIAPaCa-2 cells. Conditions: exogenous GSH 5 mM. As for the experimental part: HCT116, SW480, MDA-MB-468, MDA-MB-231, AsPC-1, BxPC-3, CFPAC-1, MIAPaCa-2, PANC-1, Panc10.05, SW1990, U-251, LN-18, LN-229, T98G, U-343, A-172 cells were used. Cell lines were authenticated using Short Tandem Repeat (STR) profiling and tested for mycoplasma. Colorectal and breast cancer cell lines were grown in Dulbecco's Modified Eagle Medium (DMEM), pancreatic ductal adenocarcinoma (PDAC) cell lines were grown in Roswell Park Memorial institute (RPMI) 1640. All cell lines were supplemented with penicillin-streptomycin, amphotericin, 2 mM L-glutamine, and 10% fetal bovine serum (FBS). Cells were kept at 37° C. in 5% CO2 in a humidified cell culture incubator. A formulated medium lacking cysteine, cystine, methionine, and serine was used as a base for creating experimental media. The base medium formulation contained 0.2 mM L-histidine, 0.4 mM L-isoleucine, 0.4 mM L-leucine, 0.4 mM L-lysine, 0.2 mM L-phenylalanine, 0.4 mM L-threonine, 0.08 mM L-tryptophan, 0.4 mM L-valine, 0.2 mM L-arginine, 2 mM L-glutamine, 0.2 mM L-tyrosine, 0.4 mM L-alanine, 0.3 mM L-proline, 0.15 mM L-glutamic acid, 0.1 mM L-aspartic acid, 0.2 mM L-asparagine, and 0.4 mM glycine. […]
Cells were seeded at 6×10^4 cells per well into 24-well plates (triplicate wells per condition) in the relevant complete medium and adhered for a full 24-hour period. […] DAPI-stained cell nuclei were detected via microscopy. […]

Another assay concerns MDA-MB-231 cells. Kind of assay: Steady state metabolite measurements by LC-MS. The class given is cell-based. Here is the method:
Metabolomics experiments were performed as follows. Cells were seeded into 6-well plates (5×10^5-1.5×10^6 cells/mL, depending on time-course, triplicate wells per condition) in complete medium and adhered overnight. Cells were washed with PBS, and the relevant experimental media were added for the stated times. Duplicate wells were used for cell counting. Cell counts were used to normalize the volume of lysis solvent prior to metabolite extractions (2×10^6 cells/mL). Cells were washed quickly in PBS, then ice-cold lysis solvent (methanol 50%, acetonitrile 30%, water 20%) was added, and cells were scraped on ice. Lysates were transferred to 1.5 mL tubes on ice, vortexed, then spun by centrifugation at 15,000 rpm at 4° C. for 10 minutes. Supernatants were collected and stored at -80° C. for LC-MS analysis. Prepared samples were analyzed on an LC-MS platform consisting of an […] system and an ExactiveTM mass spectrometer. A Sequant® ZIC®-HILIC column (4.6 mm×150 mm, 3.5 μm) was used to separate the metabolites with the mobile phase using A=0.1% (v/v) formic acid in water and B=0.1% (v/v) formic acid in acetonitrile. A gradient program starting at 20% of A and linearly increasing to 80% at 30 min was used followed by washing (92% of A for 5 mins) and re-equilibration (20% of A for 10 min) steps. The total run time of the method was 45 min. The LC stream was desolvated and ionized in the HESI probe. The ExactiveTM mass spectrometer was operated in full scan mode over a mass range of 70-1,200 m/z at a resolution of 50,000 with polarity switching. The LC-MS raw data was converted into mzML files by using ProteoWizard and imported to MZMine 2.10 for peak extraction and sample alignment. An in-house database including all possible ^13C and ^15N isotopic m/z values of the relevant metabolites was used for the assignment of LCMS signals. Finally the peak areas were used for comparative quantification.

The subject of assay [2] is breast, colorectal and pancreatic cancer cell lines. Description: Cell counting in complete or cysteine-free medium, cell lines not given. Format: cell-based. Conditions: supplementation during cysteine starvation. As for the experimental part: The base medium formulation contained 0.2 mM L-histidine, 0.4 mM L-isoleucine, 0.4 mM L-leucine, 0.4 mM L-lysine, 0.2 mM L-phenylalanine, 0.4 mM L-threonine, 0.08 mM L-tryptophan, 0.4 mM L-valine, 0.2 mM L-arginine, 2 mM L-glutamine, 0.2 mM L-tyrosine, 0.4 mM L-alanine, 0.3 mM L-proline, 0.15 mM L-glutamic acid, 0.1 mM L-aspartic acid, 0.2 mM L-asparagine, and 0.4 mM glycine.
DAPI-stained cell nuclei were detected via microscopy.
AMD1 inhibitor sardomozide/SAM486A, GPX4 inhibitor RSL3, and CSE inhibitor beta-cyano-L-alanine were used.
For experiments using spermine oxidase (SMOX) and polyamine oxidase (PAOX) inhibitors or MTOB, cells were pre-treated with stated concentrations for 16 hours in complete medium. After pre-treatment, cells were washed in PBS, and treatment was continued in complete or cysteine-free medium for stated times. After treatment was finished, cells were fixed and stained as described above. For experiments using MTA, polyamines, GPX4 and CSE inhibitors, treatment started at the same time as cysteine starvation. For experiments involving hypoxic conditions, cells were seeded in normoxic conditions and allowed to adhere for 24 hours before control and cysteine starvation medium was added and cells were immediately transferred either to a humidified cell culture incubator set to 37° C. in 20% O2 (normoxia), or a hypoxia chamber set to 37° C. in 1% O2 (hypoxia) for the stated times. Cells were fixed immediately and stained as described above.

Assay [3] concerns SW480 and MDA-MB-231 cells. Kind of assay: Cell counting, rescue by cysteine precursors during cysteine starvation. Format: cell-based. Here is the method:
HCT116, SW480, MDA-MB-468, MDA-MB-231, AsPC-1, BxPC-3, CFPAC-1, MIAPaCa-2, PANC-1, Panc10.05, SW1990, U-251, LN-18, LN-229, T98G, U-343, A-172 cells were used. Cell lines were authenticated using Short Tandem Repeat (STR) profiling and tested for mycoplasma. Colorectal and breast cancer cell lines were grown in Dulbecco's Modified Eagle Medium (DMEM), pancreatic ductal adenocarcinoma (PDAC) cell lines were grown in Roswell Park Memorial institute (RPMI) 1640. All cell lines were supplemented with penicillin-streptomycin, amphotericin, 2 mM L-glutamine, and 10% fetal bovine serum (FBS). Cells were kept at 37° C. in 5% CO2 in a humidified cell culture incubator. A formulated medium lacking cysteine, cystine, methionine, and serine was used as a base for creating experimental media. The base medium formulation contained 0.2 mM L-histidine, 0.4 mM L-isoleucine, 0.4 mM L-leucine, 0.4 mM L-lysine, 0.2 mM L-phenylalanine, 0.4 mM L-threonine, 0.08 mM L-tryptophan, 0.4 mM L-valine, 0.2 mM L-arginine, 2 mM L-glutamine, 0.2 mM L-tyrosine, 0.4 mM L-alanine, 0.3 mM L-proline, 0.15 mM L-glutamic acid, 0.1 mM L-aspartic acid, 0.2 mM L-asparagine, and 0.4 mM glycine. The base medium was supplemented with 10% dialyzed FBS, penicillin-streptomycin, and amphotericin. To ensure an adequate supply of vitamin B6 (a crucial co-factor for de novo cysteine synthesis), base medium was supplemented with additional 20 μM vitamin B6. The control experimental medium was the base medium supplemented with 0.4 mM L-cysteine, 0.2 mM L-methionine, and 0.4 mM L-serine. The cysteine starvation (−Cys) experimental medium was base medium supplemented with 0.2 mM L-methionine and 0.4 mM L-serine.
Cells were seeded at 6×10^4 cells per well into 24-well plates (triplicate wells per condition) in the relevant complete medium and adhered for a full 24-hour period. A ‘time-0’ plate was included to record the starting cell number to calculate relative cell numbers. Cells were washed once with phosphate-buffered saline (PBS) before receiving experimental medium containing or lacking the specified amino acids, metabolites, or drugs. At the stated time-points the medium was removed, cells were fixed in a 4% formalin-PBS solution. Cells were then washed and stored in PBS before staining with 4′,6-diamidino-2-phenylindole (DAPI)-Triton™ X100-PBS solution for 1 hour, followed by storage in PBS at 4° C. until further analysis. DAPI-stained cell nuclei were detected via microscopy.
Homocysteine, cystathionine, glutathione, putrescine, spermine, spermidine, GPX4 inhibitor ML210, SMOX inhibitor MDL 72527, PAOX inhibitor diminazene aceturate, ferrostatin-1 and erastin were used. AMD1 inhibitor sardomozide/SAM486A, GPX4 inhibitor RSL3, and CSE inhibitor beta-cyano-L-alanine were used. […]

For assay [4], the system named is HCT116, SW480, MDA-MB-231 and MDA-MB-468 cells. Kind of assay: Western blot of transsulfuration pathway enzyme expression. The class given is cell-based. Particulars: medium lacking cysteine with 0.8 mM homocysteine, 24 hr. The source says: Protein was extracted from whole cells by lysis in RIPA buffer supplemented with a protease and […] cocktail. Lysates were cleared using centrifugation, resolved on 4-12% bis-tris pre-cast gels, and transferred to nitrocellulose membranes. Primary antibodies used were MTAP, AMD1, ODC1, GPX4, AHCY, CBS, CSE, and actin as a loading control on the same blots. Secondary antibodies used were IRDye800CW anti-mouse, IRDye680RD anti-mouse, IRDye800CW anti-rabbit, and IRDye680RD anti-rabbit. Protein bands were detected and quantified using an infrared scanner and imaging software.
In general terms: A western blot detects proteins with antibodies after separation by electrophoresis.

The mark [5] stands for this setting: medium lacking cysteine with 5 mM glutathione.
Setting [6] is: medium lacking cysteine, supplement 0.2 mM.

SMILES strings stand for the structures. “Also recorded” adds a separate entry of the source.

For the molecule `N[C@@H](CCC(=O)N[C@@H](CS)C(=O)NCC(=O)O)C(=O)O` [GSH, glutathione], the “cell death and proliferation during cysteine starvation” value in assay [1] was “prevented cell death and restored proliferation”. Further, in the assay with MDA-MB-231 cells (setting [5]), the “intracellular GSH levels” value is on record as “fully restored”; the “intracellular cysteine and γ-glutamylcysteine levels” value is given as “partial rescue”.
As to `N[C@@H](CCS)C(=O)O` [homocysteine], the “rescue from cysteine starvation-induced cell death (summary in discussion)” value in assay [2] was “rescued from starvation-induced cell death; also recorded: able to rescue cells from cysteine starvation”. For the same molecule, the “rescue of survival/proliferation during cysteine starvation” value in assay [3] (supplement at 0.2 mM) is “substantial rescue”. In addition, in assay [3] (supplement at 0.8 mM), the “restoration of proliferation during cysteine starvation” value is “further able to restore proliferation; also recorded: restored proliferation and increased cell survival”. For the same molecule, in the assay with MDA-MB-231 cells (setting [6]), the intracellular cysteine levels entry was “moderate increases”; the “intracellular homocysteine and cystathionine levels” value is “significantly increased”; the “intracellular γ-glutamylcysteine and GSH levels” value is reported as “more marked increases”. Also, the intracellular cysteine levels result with MDA-MB-231 cells (medium lacking cysteine, supplement 0.8 mM, 8 h) is listed as “significant increase”. In addition, the “transsulfuration pathway enzyme expression beyond starvation alone” value in assay [4] is “little impact”.
